Assays:
[1] = tested on: HPAC (homozygous mutant KRAS G12D human pancreatic cell line); test: KRAS 3D-Cell Proliferation Assay, HPAC (Example 503); assay type: cell-based; details: Homo sapiens, HPAC, 168 h, HPAC 3D culture, 7 days, CellTiter-Glo 3D; read-out: Prolif HPAC 3D ATP IC50
How it was run: (§1)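 3D culture, ultra-low attachment wells; RPMI-1640/10% FBS/2 mM L-glutamine. Overnight settle, then compound series, 0.3% DMSO final, 7 d, 37° C, 5% CO2. Readout: CellTiter-Glo 3D luminescence. % inhibition vs DMSO (0%) and 1 μM staurosporine (100%); IC50 via 4-parameter Hill.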

[2] = tested on: H1975 (KRAS wild type human lung adenocarcinoma cell line); test: KRAS 3D-Cell Proliferation Assay, H1975 (Example 503); assay type: cell-based; details: Homo sapiens, NCI-H1975, 168 h, H1975 3D culture, 7 days, CellTiter-Glo 3D; read-out: Prolif H1975 3D ATP IC50
How it was run: as §1

SMILES | IC50 [1] | IC50 [2]
Cc1nc(N)cc(-c2nc3c4c(nc(OCC56C[C@@H](F)CN5C[C@H](F)C6)nc4c2F)N2C[C@H]4CC[C@H](N4)[C@H]2[C@H](C(F)(F)F)O3)c1C(F)(F)F [Compound 261, 4-((5R,5aS,6S,9R)-12-(((2R,6R)-2,6-Difluorotetrahydro-1H-pyrrolizin-7a(5H)-yl)methoxy)-1-fluoro-5-(trifluoromethyl)-5a,6,7,8,9,10-hexahydro-5H-4-oxa-3,10a,11,13,14-pentaaza-6,9-methanonaphtho[1,8-ab]heptalen-2-yl)-6-methyl-5-(trifluoromethyl)pyridin-2-amine] | 107 nM | 6100 nM
Cc1c(F)c(N)cc(-c2nc3c4c(nc(OCC5CN(CC(F)F)C5)nc4c2F)N2C[C@H]4CC[C@H](N4)[C@H]2[C@H](C)O3)c1C(F)(F)F [Compound 128, 5-((5S,5aS,6S,9R)-12-((1-(2,2-Difluoroethyl)azetidin-3-yl)methoxy)-1-fluoro-5-methyl-5a,6,7,8,9,10-hexahydro-5H-4-oxa-3,10a,11,13,14-pentaaza-6,9-methanonaphtho[1,8-ab]heptalen-2-yl)-2-fluoro-3-methyl-4-(trifluoromethyl)aniline] | 51.5 nM | 5060 nM
Cc1c(F)c(N)cc(-c2nc3c4c(nc(OC[C@@H]5CC[C@H]6COCCN65)nc4c2F)N2C[C@H]4CC[C@H](N4)[C@H]2[C@H](C)O3)c1Cl [Compound 111, 4-Chloro-2-fluoro-5-((5S,5aS,6S,9R)-1-fluoro-12-(((6S,8aS)-hexahydro-1H-pyrrolo[2,1-c][1,4]oxazin-6-yl)methoxy)-5-methyl-5a,6,7,8,9,10-hexahydro-5H-4-oxa-3,10a,11,13,14-pentaaza-6,9-methanonaphtho[1,8-ab]heptalen-2-yl)-3-methylaniline] | 14.1 nM | 1840 nM
Cc1nc(N)cc(-c2nc3c4c(nc(OCC5(CN6CC7CC(C6)O7)CC5)nc4c2F)N2C[C@H]4CC[C@H](N4)[C@H]2[C@H](C)O3)c1C(F)(F)F [Compound 265, 4-((5S,5aS,6S,9R)-12-((1-((6-oxa-3-azabicyclo[3.1.1]heptan-3-yl)methyl)cyclopropyl)methoxy)-1-fluoro-5-methyl-5a,6,7,8,9,10-hexahydro-5H-4-oxa-3,10a,11,13,14-pentaaza-6,9-methanonaphtho[1,8-ab]heptalene-2-yl)-6-methyl-5-(trifluoromethyl)pyridin-2-amine] | 2.24 nM | 6240 nM
Cc1c(F)c(N)cc(-c2nc3c4c(nc(OC[C@]56C[C@H](F)CN5C[C@H](F)C6)nc4c2F)N2C[C@H]4CC[C@H](N4)[C@H]2[C@H](C)O3)c1C(F)(F)F [Compound 141, 5-((5S,5aS,6S,9R)-12-(((2R,6S,7ar)-2,6-Difluorotetrahydro-1H-pyrrolizin-7a(5H)-yl)methoxy)-1-fluoro-5-methyl-5a,6,7,8,9,10-hexahydro-5H-4-oxa-3,10a,11,13,14-pentaaza-6,9-methanonaphtho[1,8-ab]heptalen-2-yl)-2-fluoro-3-methyl-4-(trifluoromethyl)aniline] | 6.92 nM | 6240 nM
Cc1nc(N)cc(-c2nc3c4c(nc(OCC5(CN6CC7(CCC7(F)F)C6)CC5)nc4c2F)N2C[C@H]4CC[C@H](N4)[C@H]2[C@H](C)O3)c1C(F)(F)F [Compound 285, 4-((5S,5aS,6S,9R)-12-((1-((5,5-difluoro-2-azaspiro[3.3]heptan-2-yl)methyl)cyclopropyl)methoxy)-1-fluoro-5-methyl-5a,6,7,8,9,10-hexahydro-5H-4-oxa-3,10a,11,13,14-pentaaza[6,9]methanonaphtho[1,8-ab]heptalene-2-yl)-6-methyl-5-(trifluoromethyl)pyridin-2-amine] | 3.05 nM | 608 nM
C[C@@H]1Oc2nc(-c3cc(N)nc(C(F)F)c3C(F)(F)F)c(F)c3nc(OC[C@@]45CCCN4C[C@H](F)C5)nc(c23)N2C[C@H]3CC[C@H](N3)[C@@H]12 [Compound 260, 6-(Difluoromethyl)-4-((5S,5aS,6S,9R)-1-fluoro-12-(((2R,7aS)-2-fluorotetrahydro-1H-pyrrolizin-7a(5H)-yl)methoxy)-5-methyl-5a,6,7,8,9,10-hexahydro-5H-4-oxa-3,10a,11,13,14-pentaaza-6,9-methanonaphtho[1,8-ab]heptalen-2-yl)-5-(trifluoromethyl)pyridin-2-amine] | 41.5 nM | 3250 nM
Cc1c(F)c(N)cc(-c2nc3c4c(nc(OCCC5(N6CCOCC6)COC5)nc4c2F)N2C[C@H]4CC[C@H](N4)[C@H]2[C@H](C)O3)c1C(F)(F)F [Compound 149, 2-Fluoro-5-((5S,5aS,6S,9R)-1-fluoro-5-methyl-12-(2-(3-morpholinooxetan-3-yl)ethoxy)-5a,6,7,8,9,10-hexahydro-5H-4-oxa-3,10a,11,13,14-pentaaza-6,9-methanonaphtho[1,8-ab]heptalen-2-yl)-3-methyl-4-(trifluoromethyl)aniline] | 186 nM | 20000 nM
Cc1cc(N)c(Cl)c(-c2nc3c4c(nc(OC[C@@H]5CC[C@H]6COCCN65)nc4c2F)N2C[C@H]4CC[C@H](N4)[C@H]2[C@H](C)O3)c1C(F)(F)F [Compound 103, 2-Chloro-3-((5S,5aS,6S,9R)-1-fluoro-12-(((6S,8aS)-hexahydro-1H-pyrrolo[2,1-c][1,4]oxazin-6-yl)methoxy)-5-methyl-5a,6,7,8,9,10-hexahydro-5H-4-oxa-3,10a,11,13,14-pentaaza-6,9-methanonaphtho[1,8-ab]heptalen-2-yl)-5-methyl-4-(trifluoromethyl)aniline] | 9.29 nM | 3460 nM
Cc1cc(N)cc(-c2nc3c4c(nc(OC[C@@]56CCCN5C[C@H](F)C6)nc4c2F)N2C[C@H]4CC[C@H](N4)[C@H]2[C@H](C)O3)c1Cl [Compound 74, 4-Chloro-3-((5S,5aS,6S,9R)-1-fluoro-12-(((2R,7aS)-2-fluorotetrahydro-1H-pyrrolizin-7a(5H)-yl)methoxy)-5-methyl-5a,6,7,8,9,10-hexahydro-5H-4-oxa-3,10a,11,13,14-pentaaza-6,9-methanonaphtho[1,8-ab]heptalen-2-yl)-5-methylaniline] | 5.7 nM | 2040 nM
Cc1c(F)c(N)cc(-c2nc3c4c(nc(OC[C@@]56CCCN5C[C@H](F)C6)nc4c2F)N2C[C@H]4CC[C@H](N4)[C@H]2C(CF)O3)c1C(F)(F)F (stereo partly drawn) [Compound 239, 2-Fluoro-5-((5aS,6S,9R)-1-fluoro-5-(fluoromethyl)-12-(((2R,7aS)-2-fluorotetrahydro-1H-pyrrolizin-7a(5H)-yl)methoxy)-5a,6,7,8,9,10-hexahydro-5H-4-oxa-3,10a,11,13,14-pentaaza-6,9-methanonaphtho[1,8-ab]heptalen-2-yl)-3-methyl-4-(trifluoromethyl)aniline] | 33.4 nM | 569 nM
C[C@@H]1Oc2nc(-c3[nH]c(=O)cc4ccccc34)c(F)c3nc(OC[C@@]45CCCN4C[C@H](F)C5)nc(c23)N2C[C@H]3CC[C@H](N3)[C@@H]12 [Compound 105, 1-((5S,5aS,6S,9R)-1-Fluoro-12-(((2R,7aS)-2-fluorotetrahydro-1H-pyrrolizin-7a(5H)-yl)methoxy)-5-methyl-5a,6,7,8,9,10-hexahydro-5H-4-oxa-3,10a,11,13,14-pentaaza-6,9-methanonaphtho[1,8-ab]heptalen-2-yl)isoquinolin-3(2H)-one] | 2000 nM | 20000 nM
Cc1c(F)c(N)cc(-c2nc3c4c(nc(OCC5CC(F)C6CCCN56)nc4c2F)N2C[C@H]4CC[C@H](N4)[C@H]2[C@H](C)O3)c1C(F)(F)F (single isomer, unassigned) [160 (diast. 1)] | 8.07 nM | 1000 nM
Cc1c(F)c(N)c(F)c(-c2nc3c4c(nc(OC[C@@H]5C[C@@H](F)CN5C)nc4c2F)N2C[C@H]4CC[C@H](N4)[C@H]2[C@H](C)O3)c1C(F)(F)F [Compound 228, 2,6-Difluoro-3-((5S,5aS,6S,9R)-1-fluoro-12-(((2S,4R)-4-fluoro-1-methylpyrrolidin-2-yl)methoxy)-5-methyl-5a,6,7,8,9,10-hexahydro-5H-4-oxa-3,10a,11,13,14-pentaaza-6,9-methanonaphtho[1,8-ab]heptalen-2-yl)-5-methyl-4-(trifluoromethyl)aniline] | 2000 nM | 20000 nM
Cc1c(F)c(N)cc(-c2nc3c4c(nc(OCC5(CC(F)F)CCCN5C)nc4c2F)N2CC4CCC(N4)C2C(C)O3)c1C(F)(F)F (single isomer, unassigned) [150 (isomer 2)] | 23.9 nM | 2850 nM
Cc1c(F)c(N)cc(-c2nc3c4c(nc(OC[C@@H]5CC[C@H]6C[C@@H](F)CN56)nc4c2F)N2C[C@H]4CC[C@H](N4)[C@H]2[C@H](C)O3)c1C(F)(F)F (single isomer, unassigned) [152 (isomer 1)] | 17.4 nM | 787 nM
Cc1c(F)c(N)cc(-c2nc3c4c(nc(OCC5(CCF)CCCN5C)nc4c2F)N2CC4CCC(N4)C2C(C)O3)c1C(F)(F)F (single isomer, unassigned) [127 (isomer 2)] | 57.5 nM | 7970 nM
Cc1c(F)c(N)cc(-c2nc3c4c(nc(OC[C@@]56CCCN5C[C@H](F)C6)nc4c2F)N2C[C@H]4CC[C@H](N4)[C@H]2[C@H](C)O3)c1C=O [Compound 59, 4-Amino-3-fluoro-6-((5S,5aS,6S,9R)-1-fluoro-12-(((2R,7aS)-2-fluorotetrahydro-1H-pyrrolizin-7a(5H)-yl)methoxy)-5-methyl-5a,6,7,8,9,10-hexahydro-5H-4-oxa-3,10a,11,13,14-pentaaza-6,9-methanonaphtho[1,8-ab]heptalen-2-yl)-2-methylbenzaldehyde] | 117 nM | 10500 nM
